Experimental data from patent US9676714B2, “Sulfonylindole derivatives and method for preparing the same” (Daewoong Pharmaceutical Co., Ltd., priority 2013, dated 2017).
Structures can show the parent of a compound that is named as a salt.

biological target: T1, proton pump (H+/K+-ATPase) (Sus scrofa, UniProt P19156); assay: Measurement of inhibitory effects on proton pump (H+/K+-ATPase) activities; type: biochemical; settings: hog gastric vesicles, K+-specific H+/K+-ATPase activity, Tris-HCl buffer pH 7.4, 37° C. for 40 minutes, malachite green Pi readout
T1 construct: Gastric vesicles were prepared from hog stomach via centrifugal separation; from tissue; host or cells: hog stomach (gastric vesicles, method of Rabon et al. 1988)
How it was run: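 Hog gastric vesicles in 60 mmol/l Tris-HCl pH 7.4 with 0.5% DMSO were treated with compounds at room temperature; reaction was started with 10 μl of 10 mmol/l ATP stock. Released Pi was read at 570 nm, K+-specific activity taken as the ±K+ difference. IC50 from 4-parameter logistic fit.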

T1 sequence (P19156 whole entry): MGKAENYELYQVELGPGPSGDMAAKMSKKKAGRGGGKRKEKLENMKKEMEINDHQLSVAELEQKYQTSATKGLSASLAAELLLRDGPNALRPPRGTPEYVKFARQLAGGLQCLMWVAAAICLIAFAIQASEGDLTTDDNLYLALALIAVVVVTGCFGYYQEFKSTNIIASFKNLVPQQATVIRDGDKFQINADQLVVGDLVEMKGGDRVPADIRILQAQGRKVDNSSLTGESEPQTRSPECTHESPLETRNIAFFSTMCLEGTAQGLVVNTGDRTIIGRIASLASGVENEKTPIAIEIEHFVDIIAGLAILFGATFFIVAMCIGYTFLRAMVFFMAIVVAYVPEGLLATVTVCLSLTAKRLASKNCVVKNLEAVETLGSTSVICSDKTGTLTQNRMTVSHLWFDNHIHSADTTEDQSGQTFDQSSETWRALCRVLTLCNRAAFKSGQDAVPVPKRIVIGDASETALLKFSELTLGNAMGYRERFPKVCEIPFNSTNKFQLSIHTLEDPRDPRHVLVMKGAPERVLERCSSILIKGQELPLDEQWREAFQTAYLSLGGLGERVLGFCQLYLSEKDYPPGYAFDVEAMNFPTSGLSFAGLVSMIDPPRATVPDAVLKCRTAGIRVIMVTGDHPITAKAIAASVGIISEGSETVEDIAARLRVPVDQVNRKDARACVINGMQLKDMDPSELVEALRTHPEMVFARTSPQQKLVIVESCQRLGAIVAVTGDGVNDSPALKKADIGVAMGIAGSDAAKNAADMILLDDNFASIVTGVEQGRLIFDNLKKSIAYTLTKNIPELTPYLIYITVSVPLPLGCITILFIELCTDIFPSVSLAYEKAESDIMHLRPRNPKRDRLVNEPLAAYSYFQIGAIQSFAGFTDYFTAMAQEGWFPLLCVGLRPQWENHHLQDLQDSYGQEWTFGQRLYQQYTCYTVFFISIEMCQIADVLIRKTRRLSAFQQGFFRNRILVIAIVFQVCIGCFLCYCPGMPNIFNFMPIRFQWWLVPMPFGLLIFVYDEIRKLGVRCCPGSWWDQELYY
T1 sequence (P18434 whole entry partner): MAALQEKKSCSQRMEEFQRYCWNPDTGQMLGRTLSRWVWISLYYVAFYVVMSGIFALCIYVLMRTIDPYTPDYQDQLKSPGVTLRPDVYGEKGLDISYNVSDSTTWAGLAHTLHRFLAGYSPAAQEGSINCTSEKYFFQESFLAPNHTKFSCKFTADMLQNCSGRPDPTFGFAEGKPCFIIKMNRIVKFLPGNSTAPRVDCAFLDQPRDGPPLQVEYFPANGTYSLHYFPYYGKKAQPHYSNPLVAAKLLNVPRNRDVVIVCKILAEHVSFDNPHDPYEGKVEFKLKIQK

IC50	Structure (SMILES)
0.8 µM	CNCc1cn(S(=O)(=O)c2cccnc2)c2cc(Nc3ncccc3Cl)ccc12 [Example 100, N-(3-chloropyridin-2-yl)-3-((methylamino)methyl)-1-(pyridin-3-ylsulfonyl)-1H-indol-6-amine hydrochloride]
2.2 µM	CNCc1cn(S(=O)(=O)c2cccnc2)c2cc(Nc3ncccc3C(F)(F)F)ccc12 [Example 101, 3-((methylamino)methyl)-1-(pyridin-3-ylsulfonyl)-N-(3-(trifluoromethyl)pyridin-2-yl)-1H-indol-6-amine hydrochloride]
2.52 µM	CNCc1cn(S(=O)(=O)c2cccnc2)c2cc(Nc3ncccc3Br)ccc12 [Example 102, N-(3-bromopyridin-2-yl)-3-((methylamino)methyl)-1-(pyridin-3-ylsulfonyl)-1H-indol-6-amine hydrochloride]
0.88 µM	CNCc1cn(S(=O)(=O)c2cccnc2)c2cc(Nc3cccnc3C)ccc12 [Example 105, 3-((methylamino)methyl)-N-(2-methylpyridin-3-yl)-1-(pyridin-3-ylsulfonyl)-1H-indol-6-amine hydrochloride]
3.38 µM	CNCc1cn(S(=O)(=O)c2cccnc2)c2cc(Nc3cccnc3F)ccc12 [Example 106, N-(2-fluoropyridin-3-yl)-3-((methylamino)methyl)-1-(pyridin-3-ylsulfonyl)-1H-indol-6-amine hydrochloride]
0.48 µM	CNCc1cn(S(=O)(=O)c2cccnc2)c2cc(Nc3cccnc3Cl)ccc12 [Example 107, N-(2-chloropyridin-3-yl)-3-((methylamino)methyl)-1-(pyridin-3-ylsulfonyl)-1H-indol-6-amine hydrochloride]
1.98 µM	CNCc1cn(S(=O)(=O)c2cccnc2)c2cc(Nc3cccnc3C(F)(F)F)ccc12 [Example 109, 3-((methylamino)methyl)-1-(pyridin-3-ylsulfonyl)-N-(2-(trifluoromethyl)pyridin-3-yl)-1H-indol-6-amine hydrochloride]
5.04 µM	CNCc1cn(S(=O)(=O)c2cccnc2)c2cc(Nc3cncc(Br)c3)ccc12 [Example 110, N-(5-bromopyridin-3-yl)-3-((methylamino)methyl)-1-(pyridin-3-ylsulfonyl)-1H-indol-6-amine hydrochloride]
3.21 µM	CNCc1cn(S(=O)(=O)c2cccnc2)c2cc(Nc3ccc(C)nc3C)ccc12 [Example 111, N-(2,6-dimethylpyridin-3-yl)-3-((methylamino)methyl)-1-(pyridin-3-ylsulfonyl)-1H-indol-6-amine hydrochloride]
0.95 µM	CNCc1cn(S(=O)(=O)c2cccnc2)c2cc(Nc3ccc(C)nc3F)ccc12 [Example 112, N-(2-fluoro-6-methylpyridin-3-yl)-3-((methylamino)methyl)-1-(pyridin-3-ylsulfonyl)-1H-indol-6-amine hydrochloride]
0.34 µM	CNCc1cn(S(=O)(=O)c2cccnc2)c2cc(Nc3ccc(C)nc3Cl)ccc12 [Example 113, N-(2-chloro-6-methylpyridin-3-yl)-3-((methylamino)methyl)-1-(pyridin-3-ylsulfonyl)-1H-indol-6-amine hydrochloride]
1.3 µM	CNCc1cn(S(=O)(=O)c2cccnc2)c2cc(Nc3ccc(C)nc3C(F)(F)F)ccc12 [Example 115, N-(6-methyl-2-(trifluoromethyl)pyridin-3-yl)-3-((methylamino)methyl)-1-(pyridin-3-ylsulfonyl)-1H-indol-6-amine hydrochloride]
1.57 µM	CNCc1cn(S(=O)(=O)c2cccnc2)c2cc(Nc3ccc(F)nc3C)ccc12 [Example 116, N-(6-fluoro-2-methylpyridin-3-yl)-3-((methylamino)methyl)-1-(pyridin-3-ylsulfonyl)-1H-indol-6-amine hydrochloride]
0.48 µM	CNCc1cn(S(=O)(=O)c2cccnc2)c2cc(Nc3ccc(Cl)nc3C)ccc12 [Example 118, N-(6-chloro-2-methylpyridin-3-yl)-3-((methylamino)methyl)-1-(pyridin-3-ylsulfonyl)-1H-indol-6-amine hydrochloride]
